From patent publication US10722514B2 (FLX Bio, Inc., priority 2017, dated 2020)
Structures can show the parent of a compound that is named as a salt.

Target: T1, recombinant full-length USP7 (Homo sapiens, UniProt Q93009)
T1 construct: A 25 μl reaction volume containing recombinant full-length USP7 (62 pM)
Assay: USP7-mediated ubiquitin-rhodamine cleavage assay
Format: biochemical
Conditions: recombinant full-length USP7 62 pM; ubiquitin-rhodamine 100 nM; 30-minute pre-incubation, 1 hour reaction at room temperature; read-out: Potency (USP7 IC50)
Method in brief: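 After compound and enzyme (62 pM) sat together 30 min at RT, 100 nM fluorogenic ubiquitin-rhodamine substrate was added for 1 h protected from light. Acetic acid quenched the reaction prior to the fluorescence read.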

T1 sequence (Q93009 whole entry): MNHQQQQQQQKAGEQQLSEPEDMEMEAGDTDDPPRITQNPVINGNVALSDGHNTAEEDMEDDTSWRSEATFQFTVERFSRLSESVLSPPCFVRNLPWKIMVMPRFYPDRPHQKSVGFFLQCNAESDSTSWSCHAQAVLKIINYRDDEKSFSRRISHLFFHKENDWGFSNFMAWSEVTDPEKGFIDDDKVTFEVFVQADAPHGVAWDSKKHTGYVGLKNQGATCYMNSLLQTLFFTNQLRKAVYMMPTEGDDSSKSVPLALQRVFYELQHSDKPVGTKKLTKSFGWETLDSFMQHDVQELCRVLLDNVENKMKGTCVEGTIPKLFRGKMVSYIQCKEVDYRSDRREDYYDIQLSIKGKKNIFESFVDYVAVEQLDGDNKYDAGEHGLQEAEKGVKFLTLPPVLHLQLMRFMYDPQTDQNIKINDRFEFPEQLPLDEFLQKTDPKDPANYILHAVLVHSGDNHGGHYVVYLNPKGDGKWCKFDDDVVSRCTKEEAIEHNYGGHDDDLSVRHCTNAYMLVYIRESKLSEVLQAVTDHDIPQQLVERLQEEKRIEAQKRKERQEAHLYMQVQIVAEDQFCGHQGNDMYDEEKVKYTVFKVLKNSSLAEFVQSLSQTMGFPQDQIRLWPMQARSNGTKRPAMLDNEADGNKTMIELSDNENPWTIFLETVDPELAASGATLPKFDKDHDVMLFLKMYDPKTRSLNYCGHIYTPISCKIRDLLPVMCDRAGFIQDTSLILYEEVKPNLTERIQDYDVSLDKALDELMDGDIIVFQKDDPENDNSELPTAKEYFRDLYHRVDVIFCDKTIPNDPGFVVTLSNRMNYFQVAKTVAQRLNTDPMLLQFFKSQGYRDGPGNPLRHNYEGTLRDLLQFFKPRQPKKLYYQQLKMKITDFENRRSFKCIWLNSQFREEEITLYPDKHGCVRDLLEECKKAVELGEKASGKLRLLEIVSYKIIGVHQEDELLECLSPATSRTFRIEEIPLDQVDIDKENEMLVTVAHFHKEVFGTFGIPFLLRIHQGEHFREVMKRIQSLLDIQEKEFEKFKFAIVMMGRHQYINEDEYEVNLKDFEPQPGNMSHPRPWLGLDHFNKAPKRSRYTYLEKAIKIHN

Question: How did the IC50 turn out when `Cc1cc(Cl)cc(-c2ccnc3cc(Cn4c(=O)ccn(CC(F)(F)F)c4=O)sc23)c1O[C@H]1CC[C@](C)(N2CCOCC2)C1` [Example 612, 3-[[7-[5-chloro-3-methyl-2-[(1S,3S)-3-methyl-3-morpholino-cyclopentoxy]phenyl]thieno[3,2-b]pyridin-2-yl]methyl]-1-(2,2,2-trifluoroethyl)pyrimidine-2,4-dione; 2,2,2-trifluoroacetic acid] was run?
Answer: The IC50 was < 1000 nM.

Question: With `Cc1cc(Cl)cc(-c2ccnc3cc(Cn4c(=O)ccn(CC(F)(F)F)c4=O)sc23)c1OC1CC(C)(N2CCOCC2)C1` (stereo not drawn) [Example 613, 3-[[7-[5-chloro-3-methyl-2-(3-methyl-3-morpholino-cyclobutoxy)phenyl]thieno[3,2-b]pyridin-2-yl]methyl]-1-(2,2,2-trifluoroethyl)pyrimidine-2,4-dione; 2,2,2-trifluoroacetic acid] as the compound, how does the IC50 read?
Answer: The IC50 was < 1000 nM.

Question: Which IC50 does the source give for `Cc1cc([N+](=O)[O-])cc(-c2ccnc3cc(Cn4c(=O)ccn(CC(F)(F)F)c4=O)sc23)c1Oc1cn[nH]c1` [Example 614] here?
Answer: The IC50 was < 1000 nM.

Question: Which IC50 does the source give for `Cc1cc(Cl)cc(-c2ccnc3cc(COc4nc(=O)ccn4CC(F)(F)F)sc23)c1O[C@H]1CNCC[C@H]1C` [Example 615, 2-[[7-[5-chloro-3-methyl-2-[[(3R,4R)-4-methyl-3-piperidyl]oxy]phenyl]thieno[3,2-b]pyridin-2-yl]methoxy]-1-(2,2,2-trifluoroethyl)pyrimidin-4-one] here?
Answer: The IC50 was < 1000 nM.

Question: Which IC50 does the source give for `Cc1cc(Cl)cc(-c2ccnc3cc(Cn4c(=O)ccn(CC(F)(F)F)c4=O)sc23)c1OC1CCNCC1(C)C` (stereo not drawn) [Example 616, 3-[[7-[5-chloro-2-[(3,3-dimethyl-4-piperidyl)oxy]-3-methyl-phenyl]thieno[3,2-b]pyridin-2-yl]methyl]-1-(2,2,2-trifluoroethyl)pyrimidine-2,4-dione; 2,2,2-trifluoroacetic acid] here?
Answer: The IC50 was < 1000 nM.

Question: How did the IC50 turn out when `Cc1cc(Cl)cc(-c2ccnc3cc(Cn4c(=O)ccn(CC(F)(F)F)c4=O)sc23)c1OC1CCNCC12CC2` (stereo not drawn) [Example 617, 3-[[7-[2-(5-azaspiro[2.5]octan-8-yloxy)-5-chloro-3-methyl-phenyl]thieno[3,2-b]pyridin-2-yl]methyl]-1-(2,2,2-trifluoroethyl)pyrimidine-2,4-dione; 2,2,2-trifluoroacetic acid] was run?
Answer: Its IC50 is < 1000 nM.

Question: With `Cc1cc(Cl)cc(-c2ccnc3cc(Cn4c(=O)ccn(CC(F)(F)F)c4=O)sc23)c1OC1(C)CCNCC1` [Example 618, 3-[[7-[5-chloro-3-methyl-2-[(4-methyl-4-piperidyl)oxy]phenyl]thieno[3,2-b]pyridin-2-yl]methyl]-1-(2,2,2-trifluoroethyl)pyrimidine-2,4-dione] as the compound, how does the IC50 read?
Answer: Its IC50 is < 1000 nM.

Question: With `CCN1C[C@H]2C[C@@H]1[C@H](Oc1c(C)cc(Cl)cc1-c1ccnc3cc(Cn4c(=O)ccn(CC(F)(F)F)c4=O)sc13)C2` [Example 619, 3-[[7-[5-chloro-2-[[(1S,4R,5R)-3-ethyl-3-azabicyclo[2.2.1]heptan-5-yl]oxy]-3-methyl-phenyl]thieno[3,2-b]pyridin-2-yl]methyl]-1-(2,2,2-trifluoroethyl)pyrimidine-2,4-dione] as the compound, how does the IC50 read?
Answer: The IC50 was < 1000 nM.

Question: For `Cc1cc(Cl)cc(-c2ccnc3cc(Cn4c(=O)ccn(CC(F)(F)F)c4=O)sc23)c1O[C@@H]1CNC[C@@H]1C(F)F` [Example 620, 3-[[7-[5-chloro-2-[(3S,4S)-4-(difluoromethyl)pyrrolidin-3-yl]oxy-3-methyl-phenyl]thieno[3,2-b]pyridin-2-yl]methyl]-1-(2,2,2-trifluoroethyl)pyrimidine-2,4-dione], which IC50 is on record?
Answer: Its IC50 is < 1000 nM.

Question: For `Cc1cc(Cl)cc(-c2ccnc3cc(Cn4c(=O)ccn(CC(F)(F)F)c4=O)sc23)c1O[C@@H]1CCCN[C@@H]1C` [Example 621, 3-[[7-[5-chloro-3-methyl-2-[[(2R,3R)-2-methyl-3-piperidyl]oxy]phenyl]thieno[3,2-b]pyridin-2-yl]methyl]-1-(2,2,2-trifluoroethyl)pyrimidine-2,4-dione; 2,2,2-trifluoroacetic acid], which IC50 is on record?
Answer: Its IC50 is < 1000 nM.

Question: How did the IC50 turn out when `Cc1cc(Cl)cc(-c2ccnc3cc(Cn4c(=O)ccn(CC(F)(F)F)c4=O)sc23)c1O[C@@H]1CCCN[C@H]1C` [Example 622, 3-[[7-[5-chloro-3-methyl-2-[[(2S,3R)-2-methyl-3-piperidyl]oxy]phenyl]thieno[3,2-b]pyridin-2-yl]methyl]-1-(2,2,2-trifluoroethyl)pyrimidine-2,4-dione; 2,2,2-trifluoroacetic acid] was run?
Answer: The IC50 was < 1000 nM.

Question: For `Cc1cc(Cl)cc(-c2ccnc3cc(Cn4c(=O)ccn(CC(F)(F)F)c4=O)sc23)c1O[C@@H]1CNC[C@H](F)C1` [Example 623, 3-[[7-[5-chloro-2-[[(3S,5R)-5-fluoro-3-piperidyl]oxy]-3-methyl-phenyl]thieno[3,2-b]pyridin-2-yl]methyl]-1-(2,2,2-trifluoroethyl)pyrimidine-2,4-dione; 2,2,2-trifluoroacetic acid], which IC50 is on record?
Answer: Its IC50 is < 1000 nM.

Question: With `Cc1cc(Cl)cc(-c2ccnc3cc(Cn4c(=O)ccn(CC(F)(F)F)c4=O)sc23)c1OC1CC(N2CCC[C@H]2CO)C1` (stereo partly drawn) [Example 624, 3-[[7-[5-chloro-2-[3-[(2S)-2-(hydroxymethyl)pyrrolidin-1-yl]cyclobutoxy]-3-methyl-phenyl]thieno[3,2-b]pyridin-2-yl]methyl]-1-(2,2,2-trifluoroethyl)pyrimidine-2,4-dione dihydrochloride] as the compound, how does the IC50 read?
Answer: Its IC50 is < 1000 nM.

Question: `Cc1cc(Cl)cc(-c2ccnc3cc(Cn4c(=O)ccn(CC(F)(F)F)c4=O)sc23)c1O[C@@H]1CNC[C@@H]1C` [Example 625, 3-[[7-[5-chloro-3-methyl-2-[(3S,4S)-4-methylpyrrolidin-3-yl]oxy-phenyl]thieno[3,2-b]pyridin-2-yl]methyl]-1-(2,2,2-trifluoroethyl)pyrimidine-2,4-dione] was tested. Which IC50 did it give?
Answer: The IC50 was < 1000 nM.

Question: Which IC50 does the source give for `Cc1cc(Cl)cc(-c2ccnc3cc(Cn4c(=O)ccn(CC(F)(F)F)c4=O)sc23)c1O[C@H]1CNC[C@H]1C` [Example 626, 3-[[7-[5-chloro-3-methyl-2-[(3R,4R)-4-methylpyrrolidin-3-yl]oxy-phenyl]thieno[3,2-b]pyridin-2-yl]methyl]-1-(2,2,2-trifluoroethyl)pyrimidine-2,4-dione] here?
Answer: Its IC50 is < 1000 nM.

Question: `Cc1cc(Cl)cc(-c2ccnc3cc(Cn4c(=O)ccn(CC(F)(F)F)c4=O)sc23)c1O[C@H]1CNC[C@@H]1C` [Example 627, 3-[[7-[5-chloro-3-methyl-2-[(3R,4S)-4-methylpyrrolidin-3-yl]oxy-phenyl]thieno[3,2-b]pyridin-2-yl]methyl]-1-(2,2,2-trifluoroethyl)pyrimidine-2,4-dione] was tested. Which IC50 did it give?
Answer: The IC50 was < 1000 nM.

Question: How did the IC50 turn out when `Cc1cc(Cl)cc(-c2ccnc3cc(Cn4c(=O)ccn(CC(F)(F)F)c4=O)sc23)c1O[C@@H]1CNC[C@H]1C` [Example 628, 3-[[7-[5-chloro-3-methyl-2-[(3S,4R)-4-methylpyrrolidin-3-yl]oxy-phenyl]thieno[3,2-b]pyridin-2-yl]methyl]-1-(2,2,2-trifluoroethyl)pyrimidine-2,4-dione] was run?
Answer: Its IC50 is < 1000 nM.

Question: Which IC50 does the source give for `Cc1cc(Cl)cc(-c2ccnc3cc(Cn4c(=O)ccn(CC(F)(F)F)c4=O)sc23)c1O[C@H]1CCNC[C@@H]1C` [Example 629, 3-[[7-[5-chloro-3-methyl-2-[[(3S,4S)-3-methyl-4-piperidyl]oxy]phenyl]thieno[3,2-b]pyridin-2-yl]methyl]-1-(2,2,2-trifluoroethyl)pyrimidine-2,4-dione] here?
Answer: Its IC50 is < 1000 nM.

Question: For `Cc1cc(Cl)cc(-c2ccnc3cc(Cn4c(=O)ccn(CC(F)(F)F)c4=O)sc23)c1O[C@@H]1C=C[C@@H](N)C1` [Example 630, 3-[[7-[2-[(1S,4S)-4-aminocyclopent-2-en-1-yl]oxy-5-chloro-3-methyl-phenyl]thieno[3,2-b]pyridin-2-yl]methyl]-1-(2,2,2-trifluoroethyl)pyrimidine-2,4-dione], which IC50 is on record?
Answer: The IC50 was < 1000 nM.

Question: How did the IC50 turn out when `Cc1cc(Cl)cc(-c2ccnc3cc(Cn4c(=O)ccn(CC(F)(F)F)c4=O)sc23)c1OC1C=CCNC1` (stereo not drawn) [Example 631, 3-[[7-[5-chloro-3-methyl-2-(1,2,3,6-tetrahydropyridin-3-yloxy)phenyl]thieno[3,2-b]pyridin-2-yl]methyl]-1-(2,2,2-trifluoroethyl)pyrimidine-2,4-dione] was run?
Answer: Its IC50 is < 1000 nM.

Question: For `Cc1cc(Cl)cc(-c2ccnc3cc(Cn4c(=O)ccn(CC(F)(F)F)c4=O)sc23)c1O[C@@H]1CN[C@@H](C)C1` [Example 632, 3-[[7-[5-chloro-3-methyl-2-[(3S,5S)-5-methylpyrrolidin-3-yl]oxy-phenyl]thieno[3,2-b]pyridin-2-yl]methyl]-1-(2,2,2-trifluoroethyl)pyrimidine-2,4-dione], which IC50 is on record?
Answer: The IC50 was < 1000 nM.

Question: With `Cc1cc(Cl)cc(-c2ccnc3cc(Cn4c(=O)ccn(CC(F)(F)F)c4=O)sc23)c1O[C@@H]1CN[C@H](C)C1` [Example 633, 3-[[7-[5-chloro-3-methyl-2-[(3S,5R)-5-methylpyrrolidin-3-yl]oxy-phenyl]thieno[3,2-b]pyridin-2-yl]methyl]-1-(2,2,2-trifluoroethyl)pyrimidine-2,4-dione] as the compound, how does the IC50 read?
Answer: The IC50 was < 1000 nM.

Question: How did the IC50 turn out when `Cc1cc(Cl)cc(-c2ccnc3cc(Cn4c(=O)ccn(CC(F)(F)F)c4=O)sc23)c1O[C@@H]1CN[C@H](C(C)(C)O)C1` [Example 634, 3-[[7-[5-chlloro-2-[(3S,5S)-5-(1-hydroxy-1-methyl-ethyl)pyrrolidin-3-yl]oxy-3-methyl-phenyl]thieno[3,2-b]pyridin-2-yl]methyl]-1-(2,2,2-trifluoroethyl)pyrimidine-2,4-dione] was run?
Answer: Its IC50 is < 1000 nM.

Question: `Cc1cc(Cl)cc(-c2ccnc3cc(Cn4c(=O)ccn(CC(F)(F)F)c4=O)sc23)c1O[C@@H]1CN[C@@H](C(C)(C)O)C1` [Example 635, 3-[[7-[5-chloro-2-[(3S,5R)-5-(1-hydroxy-1-methyl-ethyl)pyrrolidin-3-yl]oxy-3-methyl-phenyl]thieno[3,2-b]pyridin-2-yl]methyl]-1-(2,2,2-trifluoroethyl)pyrimidine-2,4-dione] was tested. Which IC50 did it give?
Answer: The IC50 was < 1000 nM.
